The subject of assay [1] is Mycobacterium tuberculosis. Briefly: Antitubercular activity against Mycobacterium tuberculosis after 5 days by microplate Alamar blue assay. In kind it is functional. The following applies: 120 h.
In assay [2] the test system is Mycobacterium tuberculosis. The assay is described as follows: Antitubercular activity against Mycobacterium tuberculosis H37Rv after 5 days by microplate Alamar blue assay. In kind it is functional. The following applies: for MIC: Mycobacterium tuberculosis, H37Rv, 120 h.

Molecules are shown by their SMILES. ≈ marks a conversion by molar mass, not a printed value.

This note sets out measurements from ChEMBL document CHEMBL3734750, “A click chemistry approach for the synthesis of mono and bis aryloxy linked coumarinyl triazoles as anti-tubercular agents” (2015).

In assay [1], `Cc1cc(=O)oc2cc(OCc3cn(Cc4cc(=O)oc5ccc(Cl)cc45)nn3)ccc12` returned an MIC of 6.25 µg/mL (≈ 13.9 µM). As for `COc1ccc(OCc2cn(Cc3cc(=O)oc4cc(C)ccc34)nn2)cc1`, in assay [2], the “-logMIC” value came out at 4.3 and the minimal inhibitory concentration (MIC) was found to be 50 µg/mL (≈ 132 µM).

For the compound `Cc1ccc2oc(=O)cc(Cn3cc(COc4ccc(OCc5cn(Cc6cc(=O)oc7ccc(C)cc67)nn5)cc4)nn3)c2c1`, in assay [2], the “-logMIC” value worked out at 6.69 and the MIC was 0.2 µg/mL (≈ 0.324 µM). In the case of `COc1ccc2oc(=O)cc(Cn3cc(COc4ccc(Br)cc4)nn3)c2c1`, in assay [2], the “-logMIC” value is 4.3 and inhibition of growth (MIC) required 50 µg/mL (≈ 113 µM). With `Cc1ccc2c(Cn3cc(COc4ccc(Br)cc4)nn3)cc(=O)oc2c1`, in assay [2], the “-logMIC” value amounted to 4.3 and the MIC worked out at 50 µg/mL (≈ 117 µM). For `COc1ccc(OCc2cn(Cc3cc(=O)oc4ccc(C)cc34)nn2)cc1`, in that order: 4.3 and 50 µg/mL (≈ 132 µM). Turning to `O=c1cc(Cn2cc(COc3ccc(Br)cc3)nn2)c2ccc(Cl)cc2o1`, in assay [2], the “-logMIC” value amounted to 4.3 and inhibition of growth (MIC) required 50 µg/mL (≈ 112 µM). For `Cc1ccc2c(Cn3cc(COc4ccc(OCc5cn(Cc6cc(=O)oc7c(C)c(C)ccc67)nn5)cc4)nn3)cc(=O)oc2c1C`, in that order: 5.5 and 3.12 µg/mL (≈ 4.85 µM).

For `COc1ccc(OCc2cn(Cc3cc(=O)oc4cc(C)cc(C)c34)nn2)cc1`, in assay [2], the “-logMIC” value stood at 4.3 and the MIC is 50 µg/mL (≈ 128 µM). For `COc1ccc(OCc2cn(Cc3cc(=O)oc4ccc5ccccc5c34)nn2)cc1`, in that order: 4.3 and 50 µg/mL (≈ 121 µM).

`COc1ccc(OCc2cn(Cc3cc(=O)oc4ccc(OC)cc34)nn2)cc1`: in assay [2], the “-logMIC” value was determined as 4.3 and the lowest concentration to inhibit growth (MIC) was 50 µg/mL (≈ 127 µM). In the same order, the values of `COc1ccc(OCc2cn(Cc3cc(=O)oc4ccc(Br)cc34)nn2)cc1` are 4.3 and 50 µg/mL (≈ 113 µM). Turning to `O=c1cc(Cn2cc(COc3ccc(Br)cc3)nn2)c2ccc3ccccc3c2o1`, in assay [2], the “-logMIC” value is reported as 4 and it took 100 µg/mL (≈ 216 µM) to inhibit growth (MIC). Consider `COc1ccc(OCc2cn(Cc3cc(=O)oc4cc(OC)ccc34)nn2)cc1`, for which, in assay [2], the “-logMIC” value came out at 4.3 and inhibition of growth (MIC) required 50 µg/mL (≈ 127 µM). For the compound `Cc1ccc2c(Cn3cc(COc4ccc(Cl)cc4)nn3)cc(=O)oc2c1`, in assay [2], the “-logMIC” value worked out at 4.3 and the MIC came to 50 µg/mL (≈ 131 µM). For `COc1ccc(OCc2cn(Cc3cc(=O)oc4c3ccc3ccccc34)nn2)cc1`, in that order: 4.3 and 50 µg/mL (≈ 121 µM). In the same order, the values of `O=c1cc(Cn2cc(COc3ccc(Br)cc3)nn2)c2cc(Br)ccc2o1` are 4.3 and 50 µg/mL (≈ 102 µM).

Regarding `COc1ccc(OCc2cn(Cc3cc(=O)oc4cc(Cl)ccc34)nn2)cc1`, in assay [2], the “-logMIC” value is recorded as 4.3 and the MIC amounted to 50 µg/mL (≈ 126 µM). With `Cc1cc(C)c2c(Cn3cc(COc4ccc(OCc5cn(Cc6cc(=O)oc7cc(C)cc(C)c67)nn5)cc4)nn3)cc(=O)oc2c1`, in assay [2], the “-logMIC” value is on record as 5.2 and it took 6.25 µg/mL (≈ 9.69 µM) to inhibit growth (MIC). Turning to `Cc1ccc2c(Cn3cc(COc4ccc(OCc5cn(Cc6cc(=O)oc7cc(C)ccc67)nn5)cc4)nn3)cc(=O)oc2c1`, in assay [2], the “-logMIC” value worked out at 5.2 and the MIC worked out at 6.25 µg/mL (≈ 10.1 µM). As to `Cc1ccc2oc(=O)cc(Cn3cc(COc4ccc(Br)cc4)nn3)c2c1`, in assay [2], the “-logMIC” value amounted to 4.3 and 50 µg/mL (≈ 117 µM) was the least that counted as inhibitory (MIC). For `COc1ccc2c(Cn3cc(COc4ccc(OCc5cn(Cc6cc(=O)oc7cc(OC)ccc67)nn5)cc4)nn3)cc(=O)oc2c1`, in that order: 5.2 and 6.25 µg/mL (≈ 9.64 µM). In the same order, the values of `O=c1cc(Cn2cc(COc3ccc(Br)cc3)nn2)c2c(ccc3ccccc32)o1` are 4 and 50 µg/mL (≈ 108 µM). Consider `Cc1ccc2oc(=O)cc(Cn3cc(COc4ccc(Cl)cc4)nn3)c2c1`, for which, in assay [2], the “-logMIC” value is recorded as 4.3 and the minimum inhibitory concentration (MIC) worked out at 50 µg/mL (≈ 131 µM).

`O=c1cc(Cn2cc(COc3ccc(OCc4cn(Cc5cc(=O)oc6c5ccc5ccccc56)nn4)cc3)nn2)c2ccc3ccccc3c2o1`: in assay [2], the “-logMIC” value is on record as 4.93 and the MIC came out at 12.5 µg/mL (≈ 18.2 µM).

For `O=c1cc(Cn2cc(COc3ccc(Cl)cc3)nn2)c2cc(Br)ccc2o1`, in assay [2], the “-logMIC” value is listed as 4.3 and the MIC came out at 50 µg/mL (≈ 112 µM).

In the case of `O=c1cc(Cn2cc(COc3ccc(Cl)cc3)nn2)c2c(ccc3ccccc32)o1`, in assay [2], the “-logMIC” value is 4.3 and 50 µg/mL (≈ 120 µM) was the least that counted as inhibitory (MIC). For the compound `O=c1cc(Cn2cc(COc3ccc(Cl)cc3)nn2)c2ccc(Cl)cc2o1`, in assay [2], the “-logMIC” value is given as 4.3 and the lowest concentration to inhibit growth (MIC) was 50 µg/mL (≈ 124 µM). `O=C(O)c1cn(C2CC2)c2cc(N3CCNCC3)c(F)cc2c1=O` [CIPROFLOXACIN]: the MIC in assay [2] was found to be 3.12 µg/mL (≈ 9.43 µM). The same measure, in the same setting: with `NC(=O)c1cnccn1` [PYRAZINAMIDE] the figure was 3.12 µg/mL (≈ 25.4 µM); with `CN[C@@H]1[C@H](O[C@H]2[C@H](O[C@H]3[C@H](O)[C@@H](O)[C@H](N=C(N)N)[C@@H](O)[C@@H]3N=C(N)N)O[C@@H](C)[C@]2(O)C=O)O[C@@H](CO)[C@H](O)[C@H]1O` [STREPTOMYCIN], 6.25 µg/mL (≈ 10.7 µM).
